The record followed here is ChEMBL document CHEMBL1201862, “PubChem BioAssay data set” (2004).

Several values for one entry are separate records, joined by “and”; a condition that tells them apart may be missing. Equal values may be shown once. Activity calls are given as the source filed them.

Common to all, as to type: functional
Experiment [1] has as its target T1, Replicative DNA helicase DnaB (Mycobacterium tuberculosis, UniProt P9WMR3).
T1 sequence (P9WMR3 whole entry): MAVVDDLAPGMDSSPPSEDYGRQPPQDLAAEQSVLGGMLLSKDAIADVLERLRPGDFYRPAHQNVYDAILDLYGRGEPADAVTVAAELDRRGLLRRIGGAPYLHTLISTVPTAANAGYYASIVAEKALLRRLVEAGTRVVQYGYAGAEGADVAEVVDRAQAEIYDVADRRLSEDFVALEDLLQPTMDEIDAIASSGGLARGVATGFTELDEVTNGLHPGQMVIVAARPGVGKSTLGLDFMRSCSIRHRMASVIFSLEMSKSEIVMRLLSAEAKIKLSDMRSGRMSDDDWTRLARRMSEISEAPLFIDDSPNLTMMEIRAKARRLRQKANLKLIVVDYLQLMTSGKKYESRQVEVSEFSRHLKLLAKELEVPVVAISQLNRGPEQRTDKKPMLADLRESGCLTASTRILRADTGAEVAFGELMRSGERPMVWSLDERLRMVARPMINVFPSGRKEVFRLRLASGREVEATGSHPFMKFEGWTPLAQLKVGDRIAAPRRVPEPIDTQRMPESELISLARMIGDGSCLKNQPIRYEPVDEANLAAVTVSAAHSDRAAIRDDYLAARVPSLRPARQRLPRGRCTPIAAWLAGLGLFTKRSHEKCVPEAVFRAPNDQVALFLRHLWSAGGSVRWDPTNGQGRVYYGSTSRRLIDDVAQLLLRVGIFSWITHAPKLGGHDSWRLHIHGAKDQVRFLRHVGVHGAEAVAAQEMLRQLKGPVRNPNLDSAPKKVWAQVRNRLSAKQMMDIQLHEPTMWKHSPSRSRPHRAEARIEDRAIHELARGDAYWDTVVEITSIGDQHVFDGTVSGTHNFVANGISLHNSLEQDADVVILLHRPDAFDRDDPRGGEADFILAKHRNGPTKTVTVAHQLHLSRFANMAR
The experiment in a line: DnaB intein splicing inhibitors, dose response, biochemical, cell-free fluorescence (AID 449749).

In experiment [2] the target is T2, Apoptotic protease-activating factor 1 (Homo sapiens, UniProt O14727).
T2 sequence (O14727 whole entry): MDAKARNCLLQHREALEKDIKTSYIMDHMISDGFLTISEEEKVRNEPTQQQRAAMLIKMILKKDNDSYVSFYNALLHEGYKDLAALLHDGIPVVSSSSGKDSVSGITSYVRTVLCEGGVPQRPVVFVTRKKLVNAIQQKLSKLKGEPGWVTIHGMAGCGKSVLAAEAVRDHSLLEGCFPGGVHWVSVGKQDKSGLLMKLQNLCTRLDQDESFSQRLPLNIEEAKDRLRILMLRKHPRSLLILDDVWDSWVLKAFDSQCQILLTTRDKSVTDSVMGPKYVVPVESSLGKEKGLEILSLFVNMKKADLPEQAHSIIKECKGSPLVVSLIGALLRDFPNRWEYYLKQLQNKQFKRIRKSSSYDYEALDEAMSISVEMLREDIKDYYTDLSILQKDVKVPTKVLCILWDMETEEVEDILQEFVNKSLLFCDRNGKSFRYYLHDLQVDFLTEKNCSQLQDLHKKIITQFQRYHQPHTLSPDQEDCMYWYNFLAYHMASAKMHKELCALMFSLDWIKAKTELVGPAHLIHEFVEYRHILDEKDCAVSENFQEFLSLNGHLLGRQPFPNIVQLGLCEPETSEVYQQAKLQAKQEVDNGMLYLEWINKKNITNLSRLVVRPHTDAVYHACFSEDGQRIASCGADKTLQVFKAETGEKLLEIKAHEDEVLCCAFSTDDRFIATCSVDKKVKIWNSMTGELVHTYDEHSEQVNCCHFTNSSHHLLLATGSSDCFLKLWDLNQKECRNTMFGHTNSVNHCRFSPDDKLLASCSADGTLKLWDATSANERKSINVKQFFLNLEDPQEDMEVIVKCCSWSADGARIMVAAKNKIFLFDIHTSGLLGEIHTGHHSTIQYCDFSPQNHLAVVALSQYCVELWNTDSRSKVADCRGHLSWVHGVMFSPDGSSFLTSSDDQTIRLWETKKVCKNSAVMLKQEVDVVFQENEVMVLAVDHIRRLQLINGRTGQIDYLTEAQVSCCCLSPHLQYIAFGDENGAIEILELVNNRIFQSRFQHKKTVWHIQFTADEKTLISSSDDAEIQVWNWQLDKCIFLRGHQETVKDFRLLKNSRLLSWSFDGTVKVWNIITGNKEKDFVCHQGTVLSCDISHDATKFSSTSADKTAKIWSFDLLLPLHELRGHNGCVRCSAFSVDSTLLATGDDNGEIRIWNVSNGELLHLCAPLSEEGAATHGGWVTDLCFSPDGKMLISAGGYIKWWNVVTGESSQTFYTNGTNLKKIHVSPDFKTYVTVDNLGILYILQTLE

The target of another experiment is T3, Protein RecA (Mycobacterium tuberculosis, UniProt P9WHJ3).
T3 sequence (P9WHJ3 whole entry): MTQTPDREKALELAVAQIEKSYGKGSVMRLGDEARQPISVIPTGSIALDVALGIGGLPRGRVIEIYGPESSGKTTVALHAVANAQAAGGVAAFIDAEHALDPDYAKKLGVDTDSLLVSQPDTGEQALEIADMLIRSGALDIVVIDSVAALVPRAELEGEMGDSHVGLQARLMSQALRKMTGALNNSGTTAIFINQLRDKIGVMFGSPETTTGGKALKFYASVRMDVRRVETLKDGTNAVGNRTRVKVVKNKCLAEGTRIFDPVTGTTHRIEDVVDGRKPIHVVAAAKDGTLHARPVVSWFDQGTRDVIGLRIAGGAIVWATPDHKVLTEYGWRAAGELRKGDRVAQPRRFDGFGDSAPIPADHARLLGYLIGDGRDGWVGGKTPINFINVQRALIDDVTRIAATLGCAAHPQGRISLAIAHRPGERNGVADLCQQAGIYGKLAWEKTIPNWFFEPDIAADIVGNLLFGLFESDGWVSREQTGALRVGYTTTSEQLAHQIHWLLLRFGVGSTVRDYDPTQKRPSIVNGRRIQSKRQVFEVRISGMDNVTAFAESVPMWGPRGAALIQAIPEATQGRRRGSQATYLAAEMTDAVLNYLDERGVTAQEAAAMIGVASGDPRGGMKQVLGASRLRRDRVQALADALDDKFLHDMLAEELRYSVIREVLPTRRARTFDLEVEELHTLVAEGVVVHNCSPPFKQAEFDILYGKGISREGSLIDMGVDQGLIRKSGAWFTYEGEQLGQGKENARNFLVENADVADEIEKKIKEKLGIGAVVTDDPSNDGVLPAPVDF
The experiment is described as follows: Fluorescence Cell-Free Homogeneous Dose Retest to Identify Inhibitors of RecA-Intein Splicing Activity. [Related pubchem assays (depositor defined):AID2097, AID2223, AID489010, AID492950].

A word on the AC50: it is the concentration at which the activity in the assay is half-maximal. One may read the IC50 as the concentration at which inhibition is half-maximal. As usually defined, the EC50 is the midpoint of the concentration-response curve.

With `CCCCCCCCCCOC(=O)Cn1c(COc2ccc(OC)cc2)[n+](C)c2ccccc21`, in experiment [1], the AC50 is 3.97 µM (active) and 4.05 µM (active). Besides, the IC50 in experiment [2] is 10.7 µM (active) and 13.4 µM (active). In addition, at Protein RecA, the EC50 is 10.6 µM (active) and 11.1 µM (active).
Regarding `COC1=C(c2ccccc2)C(=O)c2ccccc2C1=O`, the AC50 in experiment [1] is 13.4 µM (active). In addition, at Protein RecA, the EC50 is 13.3 µM (active).
Consider `COc1cc2c(cc1OC)-c1c(OC)c(OC)cc3c1[C@H](C2)N(C)CC3`, for which, in experiment [1], the AC50 is 3.6 µM (active). Besides, the IC50 in experiment [2] is 2.82 µM (active). The EC50 at Protein RecA was 4.91 µM (active).
On the same counts, the results for `O=C1C(Cl)=C(N2CCC(C(=O)O)CC2)C(=O)c2ccccc21` are 19.3 µM (active), 13.4 µM (active) and 5.78 µM (active).
